According to US9045498B2, “Hexahydropyrano[3,4-d][1,3]thiazin-2-amine compounds” (Pfizer Inc., priority 2012, dated 2015):

Legend:
[1] = molecular target: BACE1 enzyme (Homo sapiens (Human), UniProt P56817); test: BACE1 Cell-Free Assay (fluorescence polarization); assay type: biochemical; details: geometric mean of 2-3 determinations; pH 4.5, 3 hours at 37° C.
From the text: This assay measures the inhibition of the beta-secretase enzyme as it cleaves a non-native peptide.
A synthetic APP substrate that can be cleaved by beta-secretase having N-terminal biotin and made fluorescent by the covalent attachment of Oregon Green at the Cys residue is used to assay beta-secretase activity in the presence or absence of the inhibitory compounds. […] The BACE1 enzyme is affinity purified material from conditioned media of CHO-K1 cells that have been transfected with a soluble BACE construct (BACE1deltaTM96His). Compounds are incubated in a ½ log dose response curve from a top concentration of 100 μM with BACE1 enzyme and the biotinylated fluorescent peptide in 384-well black plates (Thermo Scientific #4318). BACE1 is at a final concentration of 0.1 nM with a final concentration of peptide substrate of 150 nM in a reaction volume of 30 μL assay buffer (100 mM sodium acetate, pH 4.5 (brought to pH with acetic acid), and 0.001% Tween-20). Plates are covered and incubated for 3 hours at 37° C. The reaction is stopped with the addition of 30 μL of 1.5 μM Streptavidin (Pierce, #21125). After a 10 minute incubation at room temperature, plates are read on a PerkinElmer EnVision for fluorescence polarization (Ex485 nm/Em530 nm). The activity of the beta-secretase enzyme is detected by changes in the fluorescence polarization that occur when the substrate is cleaved by the enzyme.

[2] = tested on: sAPPβ levels in H4 human neuroglioma cells over-expressing the wild-type human APP695; test: Whole Cell Assay (In Vitro sAPPb Assay); assay type: cell-based; details: 18 hours treatment, geometric mean of 2-3 determinations (4-7 where marked d)
Protocol: Whole Cell Assay (In Vitro sAPPb Assay):
H4 human neuroglioma cells over-expressing the wild-type human APP695 are treated for 18 hours with compound in cell growth media having a final concentration 1% DMSO. sAPPβ levels are measured using either TMB-ELISA or Pierce SuperSignal ELISA Pico Chemiluminescent Substrate (Pierce 37069) with capture APP N-terminal antibody (Affinity BioReagents, OMA1-03132), wild-type sAPPβ specific reporter p192 (Elan), and tertiary anti rabbit-HRP (GE Healthcare).

[3] = molecular target: BACE2 enzyme (Homo sapiens (Human), UniProt Q9Y5Z0); test: BACE2 Cell-free Assay (fluorescence polarization); assay type: biochemical; details: pH 4.5, 3 hours at 37° C.; number of determinations per footnote a, b, d
Protocol: This assay measures the inhibition of the BACE2 enzyme as it cleaves a non-native peptide. A synthetic substrate that can be cleaved by BACE2 having N-terminal biotin and made fluorescent by the covalent attachment of Oregon Green at the Cys residue is used to assay BACE2 activity in the presence or absence of the inhibitory compounds. The substrate is Biotin-[…]-C(Oregon green)-KK-OH. The BACE2 enzyme is available from Enzo Life Sciences (Cat # BML-SE550). Compounds are incubated in a ½ log dose response curve from a top concentration of 100 μM with BACE2 enzyme and the biotinylated fluorescent peptide in 384-well black plates (Thermo Scientific #4318). BACE2 is at a final concentration of 2.5 nM with a final concentration of peptide substrate of 150 nM in a reaction volume of 30 μL assay buffer (100 mM sodium acetate, pH 4.5 (brought to pH with acetic acid), and 0.001% Tween-20). Plates are covered and incubated for 3 hours at 37° C. The reaction is stopped with the addition of 30 μL of 1.5 μM Streptavidin (Pierce, #21125). After a 10 minute incubation at room temperature, plates are read on a Perkin Elmer EnVision for fluorescence polarization (Ex485 nm/Em530 nm). The activity of the beta-secretase enzyme is detected by changes in the fluorescence polarization that occur when the substrate is cleaved by the enzyme.

Chain of BACE2 enzyme (Q9Y5Z0 63-518): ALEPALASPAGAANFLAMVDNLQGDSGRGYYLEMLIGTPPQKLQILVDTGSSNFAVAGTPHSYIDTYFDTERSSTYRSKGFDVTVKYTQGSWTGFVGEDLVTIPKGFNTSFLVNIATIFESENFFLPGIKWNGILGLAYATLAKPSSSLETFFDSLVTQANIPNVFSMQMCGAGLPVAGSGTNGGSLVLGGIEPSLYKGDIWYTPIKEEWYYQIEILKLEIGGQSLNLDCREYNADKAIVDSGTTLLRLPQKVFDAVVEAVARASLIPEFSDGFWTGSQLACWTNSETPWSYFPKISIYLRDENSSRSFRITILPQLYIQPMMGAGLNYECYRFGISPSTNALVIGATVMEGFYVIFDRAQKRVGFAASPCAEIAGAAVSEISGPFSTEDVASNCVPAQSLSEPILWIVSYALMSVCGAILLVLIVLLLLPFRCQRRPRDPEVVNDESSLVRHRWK
Chain of BACE1 enzyme (P56817 46-457): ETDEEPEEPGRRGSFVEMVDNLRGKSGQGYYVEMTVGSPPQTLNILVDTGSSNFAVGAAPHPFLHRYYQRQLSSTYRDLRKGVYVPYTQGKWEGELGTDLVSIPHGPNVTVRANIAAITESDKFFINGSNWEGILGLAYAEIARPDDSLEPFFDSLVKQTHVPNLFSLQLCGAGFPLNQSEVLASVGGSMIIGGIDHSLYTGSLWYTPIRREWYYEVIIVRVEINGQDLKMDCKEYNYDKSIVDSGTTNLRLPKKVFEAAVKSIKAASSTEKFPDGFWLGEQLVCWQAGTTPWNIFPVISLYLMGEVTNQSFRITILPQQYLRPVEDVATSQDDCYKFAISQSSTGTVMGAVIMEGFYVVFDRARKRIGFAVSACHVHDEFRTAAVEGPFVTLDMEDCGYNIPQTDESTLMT

| IC50 [1] [nM] | IC50 [2] [nM] | IC50 [3] [nM] | SMILES |
| --- | --- | --- | --- |
| 19 | 1.88 | 108 | Cn1cc([C@H]2C[C@H]3CSC(N)=N[C@@]3(c3cc(CNCC(F)(F)F)ccc3F)CO2)cn1 (relative stereo) [Example 16, rel-(4aR,6R,8aS)-8a-(2-Fluoro-5-{[(2,2,2-trifluoroethyl)amino]methyl}phenyl)-6-(1-methyl-1H-pyrazol-4-yl)-4,4a,5,6,8,8a-hexahydropyrano[3,4-d][1,3]thiazin-2-amine] |
| 36 | 0.545 | 20 | COC[C@@H](C)NCc1ccc(F)c([C@]23CO[C@@H](c4cnn(C)c4)C[C@H]2CSC(N)=N3)c1 (relative stereo) [Example 18, (4aR*,6R*,8aS*)-8a-[2-Fluoro-5-({[(2R)-1-methoxypropan-2-yl]amino}methyl)phenyl]-6-(1-methyl-1H-pyrazol-4-yl)-4,4a,5,6,8,8a-hexahydropyrano[3,4-d][1,3]thiazin-2-amine] |
| 1220 | 53.5 | – | COc1cc(F)c([C@]23CO[C@@H](COCc4ccccc4)C[C@H]2CSC(N)=N3)cc1C#N [Example 1, 5-[(4aR,6R,8aS)-2-Amino-6-[(benzyloxy)methyl]-4,4a,5,6-tetrahydropyrano[3,4-d][1,3]thiazin-8a(8H)-yl]-4-fluoro-2-methoxybenzonitrile] |
| 445 | 74 | – | N#Cc1cc([C@]23CO[C@@H](COCc4ccccc4)C[C@H]2CSC(N)=N3)c(F)cc1F [Example 2, 5-[(4aR,6R,8aS)-2-Amino-6-[(benzyloxy)methyl]-4,4a,5,6-tetrahydropyrano[3,4-d][1,3]thiazin-8a(8H)-yl]-2,4-difluorobenzonitrile] |
| 5550 | 393 | – | N#Cc1cc([C@]23CO[C@@H](CO)C[C@H]2CSC(N)=N3)c(F)cc1F [Example 3, 5-[(4aR,6R,8aS)-2-Amino-6-(hydroxymethyl)-4,4a,5,6-tetrahydropyrano[3,4-d][1,3]thiazin-8a(8H)-yl]-2,4-difluorobenzonitrile] |
| – | 93 | 2520 | N#Cc1cc([C@]23CO[C@@H](CF)C[C@H]2CSC(N)=N3)c(F)cc1F [Example 4, 5-[(4aR,6R,8aS)-2-Amino-6-(fluoromethyl)-4,4a,5,6-tetrahydropyrano[3,4-d][1,3]thiazin-8a(8H)-yl]-2,4-difluorobenzonitrile] |
| – | 46.5 | – | COC[C@H]1C[C@H]2CSC(N)=N[C@@]2(c2cc(C#N)c(F)cc2F)CO1 [Example 5, 5-[(4aR,6R,8aS)-2-Amino-6-(methoxymethyl)-4,4a,5,6-tetrahydropyrano[3,4-d][1,3]thiazin-8a(8H)-yl]-2,4-difluorobenzonitrile] |
| 2330 | 195 | – | C[C@H]1C[C@H]2CSC(N)=N[C@@]2(c2cc(C#N)ccc2Cl)CO1 [Example 6, 3-[(4aR,6S,8aS)-2-Amino-6-methyl-4,4a,5,6-tetrahydropyrano[3,4-d][1,3]thiazin-8a(8H)-yl]-4-chlorobenzonitrile] |
| 1780 | 119 | – | C[C@H]1C[C@H]2CSC(N)=N[C@@]2(c2cccc(C#N)c2)CO1 [Example 7, 3-[(4aR,6S,8aS)-2-Amino-6-methyl-4,4a,5,6-tetrahydropyrano[3,4-d][1,3]thiazin-8a(8H)-yl]benzonitrile] |
| – | 5.9 | – | NC1=N[C@@]2(c3cc(CNCC(F)(F)F)c(F)cc3F)CO[C@@H](CF)C[C@H]2CS1 [Example 8, (4aR,6R,8aS)-8a-(2,4-Difluoro-5-{[(2,2,2-trifluoroethyl)amino]methyl}phenyl)-6-(fluoromethyl)-4,4a,5,6,8,8a-hexahydropyrano[3,4-d][1,3]thiazin-2-amine] |
| 76 | 8.94 | – | C[C@H]1C[C@H]2CSC(N)=N[C@@]2(c2cc(CNCC(F)(F)F)c(F)cc2F)CO1 [Example 9, (4aR,6S,8aS)-8a-(2,4-Difluoro-5-{[(2,2,2-trifluoroethyl)amino]methyl}phenyl)-6-methyl-4,4a,5,6,8,8a-hexahydropyrano[3,4-d][1,3]thiazin-2-amine] |
| 64 | 10.9 | – | Cc1cc([C@H]2C[C@H]3CSC(N)=N[C@@]3(c3cc(C#N)ccc3F)CO2)on1 [Example 10, 3-[(4aR,6R,8aS)-2-Amino-6-(3-methyl-1,2-oxazol-5-yl)-4,4a,5,6-tetrahydropyrano[3,4-d][1,3]thiazin-8a(8H)-yl]-4-fluorobenzonitrile] |
| 107 | 12.1 | – | Cc1coc([C@H]2C[C@H]3CSC(N)=N[C@@]3(c3cc(C#N)ccc3F)CO2)n1 [Example 11, 3-[(4aR,6R,8aS)-2-Amino-6-(4-methyl-1,3-oxazol-2-yl)-4,4a,5,6-tetrahydropyrano[3,4-d][1,3]thiazin-8a(8H)-yl]-4-fluorobenzonitrile] |
| 60 | 6.43 | – | Cn1cc([C@H]2C[C@H]3CSC(N)=N[C@@]3(c3cc(C#N)ccc3F)CO2)cn1 [Example 12, 3-[(4aR,6R,8aS)-2-Amino-6-(1-methyl-1H-pyrazol-4-yl)-4,4a,5,6-tetrahydropyrano[3,4-d][1,3]thiazin-8a(8H)-yl]-4-fluorobenzonitrile] |
| 342 | 47.6 | – | N#Cc1ccc(F)c([C@]23CO[C@@H](C4CC4)C[C@H]2CSC(N)=N3)c1 [Example 13, 3-[(4aR,6R,8aS)-2-Amino-6-cyclopropyl-4,4a,5,6-tetrahydropyrano[3,4-d][1,3]thiazin-8a(8H)-yl]-4-fluorobenzonitrile] |
| 967 | 49.6 | – | C[C@H]1C[C@H]2CSC(N)=N[C@@]2(c2cc(C#N)ccc2F)CO1 [Example 14, 3-[(4aR,6S,8aS)-2-Amino-6-methyl-4,4a,5,6-tetrahydropyrano[3,4-d][1,3]thiazin-8a(8H)-yl]-4-fluorobenzonitrile] |
| 376 | 8.05 | 423 | NC1=N[C@@]2(c3cc(CNCC(F)(F)F)ccc3F)CO[C@@H](CF)C[C@H]2CS1 [Example 15, (4aR,6R,8aS)-6-(Fluoromethyl)-8a-(2-fluoro-5-{[(2,2,2-trifluoroethyl)amino]methyl}phenyl)-4,4a,5,6,8,8a-hexahydropyrano[3,4-d][1,3]thiazin-2-amine] |
| 82 | 11.4 | – | Cc1cc([C@H]2C[C@H]3[C@@H](C)SC(N)=N[C@@]3(c3cc(C#N)ccc3F)CO2)on1 [Example 17, 3-[(4R,4aR,6R,8aS)-2-Amino-4-methyl-6-(3-methyl-1,2-oxazol-5-yl)-4,4a,5,6-tetrahydropyrano[3,4-d][1,3]thiazin-8a(8H)-yl]-4-fluorobenzonitrile] |
| 150 | 30.4 | – | C[C@H]1C[C@H]2[C@@H](CF)SC(N)=N[C@@]2(c2cc(CNCC(F)(F)F)ccc2F)CO1 [Example 19, (4S,4aR,6S,8aS)-4-(Fluoromethyl)-8a-(2-fluoro-5-{[(2,2,2-trifluoroethyl)amino]methyl}phenyl)-6-methyl-4,4a,5,6,8,8a-hexahydropyrano[3,4-d][1,3]thiazin-2-amine] |
| 68 | 35.7 | – | C[C@H]1C[C@H]2[C@@H](CF)SC(N)=N[C@@]2(c2cc(CNCC(F)(F)F)c(F)cc2F)CO1 [Example 20, (4S,4aR,6S,8aS)-8a-(2,4-Difluoro-5-{[(2,2,2-trifluoroethyl)amino]methyl}phenyl)-4-(fluoromethyl)-6-methyl-4,4a,5,6,8,8a-hexahydropyrano[3,4-d][1,3]thiazin-2-amine] |
